According to patent publication US20070276034A1, “Compounds, compositions and methods for the treatment of synucleinopathies” (priority 2002, published 2007):
Read-outs that look alike come from different tables or passages of the source.

What was measured:
Format in all cases: biochemical
[1] = molecular target: T1, Aβ 1-42 fibrils (Homo sapiens, UniProt P05067); assay: Thioflavin T fluorometry - disruption of pre-formed Aβ 1-42 Alzheimer's fibrils; settings: 25 μM pre-fibrillized Aβ 1-42, 37° C., 3 days, read-out: % Inhibition Aβ (result ± S.D.)
T1 construct: purchased Bachem Inc
Text: In one study, Thioflavin T fluorometry was used to determine the effects of the compounds, and of EDTA (as a negative control). In this assay Thioflavin T binds specifically to fibrillar amyloid, and this binding produces a fluorescence enhancement at 485 nm that is directly proportional to the amount of amyloid fibrils formed. The higher the fluorescence, the greater the amount of amyloid fibrils formed (Naki et al., Lab. Invest. 65:104-110, 1991; Levine III, Protein Sci. 2:404-410, 1993; Amyloid: Int. J. Exp. Clin. Invest. 2:1-6, 1995).
(§1) In this study, 25 μM of pre-fibrillized Aβ 1-42 (Bachem Inc) was incubated at 37° C. for 3 days either alone, or in the presence of one of the compounds or EDTA (at Aβ:test compound weight ratios of 1:1, 1:0.1, 1:0.01 or 1:0.001). Following 3-days of co-incubation, 50 μl of each incubation mixture was transferred into a 96-well microtiter plate containing 150 μl of distilled water and 50 μl of a Thioflavin T solution (i.e. 500 mM Thioflavin T in 250 mM phosphate buffer, pH 6.8). The fluorescence was read at 485 nm (444 nm excitation wavelength) using an ELISA plate fluorometer after subtraction with buffer alone or compound alone, as blank.

[2] = molecular target: T2, monomeric Aβ 1-42 (Homo sapiens, UniProt P05067); assay: SDS-PAGE/Western blot of Aβ 1-42 after incubation with compounds; settings: 25 μM pre-fibrillized Aβ 1-42, 37° C., 3 days, 0.2 μm filtrate, antibody 6E10
T2 construct: purchased Bachem Inc
Experimental: In this latter study, triplicate samples of pre-fibrillized Aβ 1-42 (25 μM) was incubated at 37° C. for 3 days, alone or in the presence of the compounds or EDTA. Five micrograms of each sample was then filtered through a 0.2 μm filter. Protein recovered from the filtrate was then loaded, and ran on a 10-20% Tris-Tricine SDS-PAGE, blotted to nitrocellulose and detected using an Aβ-antibody (clone 6E10; Senetek).

[3] = molecular target: T1, Aβ 1-42 fibrils; assay: Congo red binding assay with Aβ 1-42 fibrils; settings: 3-day incubation
Experimental: (§2) In the Congo red binding assay the ability of a test compound to alter amyloid (in this case, Aβ) binding to Congo red is quantified. In this assay, Aβ 1-42 and test compounds were incubated for 3 days and then vacuum filtered through a 0.2 μm filter. The amount of Aβ 1-42 retained in the filter was then quantitated following staining of the filter with Congo red. After appropriate washing of the filter, any lowering of the Congo red color on the filter in the presence of the test compound (compared to the Congo red staining of the amyloid protein in the absence of the test compound) was indicative of the test compound's ability to diminish/alter the amount of aggregated and congophilic Aβ.
In one study, the ability of Aβ fibrils to bind Congo red in the absence or presence of increasing amounts of the compounds or EDTA (at Aβ:test compound weight ratios of 1:1, 1:0.1, 1:0.01 or 1:0.001) was determined.

[4] = molecular target: T1, Aβ 1-42 fibrils; assay: Circular dichroism spectroscopy of Aβ 1-42 fibrils; settings: 3 days co-incubation, 25 μM Aβ 1-42 (FIG. 1, FIG. 2)
Experimental: Circular dichroism (CD) spectroscopy is a method that can be used to determine the effects of test compounds to disrupt the secondary structure conformation of amyloid fibrils. In one study, as described in this example, circular dichroism spectroscopy was used to determine the effects of different compounds of the invention on β-sheet conformation of Aβ 1-42 fibrils. For this study, Aβ 1-42 (Bachem Inc., Torrance, Calif.) was first dissolved in a 2 mM NaOH solution, maintaining the pH of these solutions above 10. […] Aβ 1-42 was then incubated at 37° C. in the absence or presence of different compounds at an Aβ:test compound wt/wt ratios of 1:0.1, 1:1 and 1:10. After 3 days of incubation, CD spectra were recorded on a Jasco 810 spectropolarimeter (Easton, Md.). All CD spectra were collected with 0.05 cm quartz cells. Wavelength traces were scanned from 190-260 nm at 0.5 nm increments with a bandwidth of 5 nm, at a scan speed of 10 nm/minute, a response time of 32 seconds, and a data pitch of 0.5 nm. The whole system was equilibrated and continuously flushed with nitrogen at 10 ml/minute. […] Ellipticity in degrees was converted to MRE ([Q]; molar residue ellipticity) using the formula [Q]=100•[…]; where Q is the ellipticity in degrees; […]

[5] = molecular target: T3, IAPP fibrils (Homo sapiens, UniProt P10997); assay: Thioflavin T fluorometry - disruption of type 2 diabetes IAPP fibrils; settings: 25 μM pre-fibrillized IAPP, 37° C., 3 days, read-out: % Inhibition IAPP (result ± S.D.)
T3 construct: purchased Bachem Inc
T3 sequence (P10997 34-70 limits assumed): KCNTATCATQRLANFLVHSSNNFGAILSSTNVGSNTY
Experimental: In this assay Thioflavin T binds specifically to fibrillar amyloid, and this binding produces a fluorescence enhancement at 485 nm that is directly proportional to the amount of IAPP fibrils present. The higher the fluorescence, the greater the amount of IAPP fibrils present (Naki et al, Lab. Invest. 65:104-110, 1991; Levine III, Protein Sci. 2:404-410, 1993; Amyloid: Int. J. Exp. Clin. Invest. 2:1-6, 1995).
as §1, with “IAPP” for “Aβ 1-42”, “IAPP:test” for “Aβ:test”

[6] = molecular target: T3, IAPP fibrils; assay: Congo red binding assay with IAPP fibrils; settings: 3-day incubation
Experimental: as §2, with “of a given test compound” for “of a test compound”, “this case, IAPP) binding to” for “this case, Aβ) binding to”, “this assay, IAPP and test” for “this assay, Aβ 1-42 and test”, “amount of IAPP retained in” for “amount of Aβ 1-42 retained in”, “and congophilic IAPP.” for “and congophilic Aβ.”
In the study, the ability of IAPP fibrils to bind Congo red in the absence or presence of increasing amounts of the compounds or EDTA (at IAPP:test compound weight ratios of 1:1, 1:0.1, 1:0.01 or 1:0.001) was determined.

[7] = Aβ:test compound wt/wt ratio 1:0.1
[8] = Aβ:test compound wt/wt ratio 1:1
[9] = IAPP:test compound wt/wt ratio 1:0.001
[10] = IAPP:test compound wt/wt ratio 1:0.1
[11] = IAPP:test compound wt/wt ratio 1:1

T1 sequence (P05067 672-713): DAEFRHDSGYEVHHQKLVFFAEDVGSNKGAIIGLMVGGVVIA
T2 sequence (P05067 672-713): as above

Oc1ccc(CCc2ccc(O)c(O)c2)cc1O [Compound 4, 1,2-bis(3,4-dihydroxyphenyl)ethane]
inhibition ([1]; Aβ:test compound wt/wt ratio 1:0.001): 26.8 ± 4.8%
inhibition [1, 7]: 97.4 ± 0.4%
inhibition [1, 8]: 98.5 ± 0.77%
detection of Aβ 1-42 monomers (~4 kilodalton band) on Western blot [2]: not detected
% Inhibition Aβ (result ± S.D.), Congo red binding ([3]; Aβ:test compound wt/wt ratio 1:0.01): 16.4 ± 2.02%
% Inhibition Aβ (result ± S.D.), Congo red binding [3, 7]: 46.8 ± 1.28%
% Inhibition Aβ (result ± S.D.), Congo red binding [3, 8]: 73.0 ± 0.90%
disruption of β-sheet structure in Aβ 1-42 fibrils (CD minima at 218 nm) [4]: marked disruption of β-sheet structure
inhibition [5, 9]: 17.3 ± 4.07%
inhibition ([5]; IAPP:test compound wt/wt ratio 1:0.01): 63.2 ± 2.09%
inhibition [5, 10]: 96 ± 1%
inhibition [5, 11]: 99.7 ± 0.23%
% Inhibition IAPP (result ± S.D.), Congo red binding [6, 9]: 0.0 ± 1.05%
% Inhibition IAPP (result ± S.D.), Congo red binding [6, 10]: 25.4 ± 4.68%
% Inhibition IAPP (result ± S.D.), Congo red binding [6, 11]: 68.9±1.22%
